Measurements: patent US20250304914A1, “METHODS OF PRODUCING ENGINEERED IMMUNE CELLS” (Takeda Pharmaceutical Company Limited, priority 2022, published 2025)

What was measured:
Type in all cases: cell-based
SK-HEP-1 cells = assay: Introduction of CAR gene into SK-HEP-1 cells, flow cytometry; conditions: Example 8, 0.1% DMSO in transduction step, FIG. 8A
Description: SK-HEP-1 cell culture medium: MEM, L-Gln (+) (Thermo Fisher Scientific) was prepared by adding 10% FBS (Biosera Co., Ltd.), 1% Non-essential amino acids (Fujifilm Wako Pure Chemical Industries, Ltd.), 1% Penicillin-Streptomycin solution (Fujifilm Wako Pure Chemical Industries, Ltd.), and 1 mM Sodium pyruvate (Fujifilm Wako Pure Chemical Industries, Ltd.). Dimethyl Sulfoxide (DMSO) (Wako Pure Chemical Industries, Ltd) was added to the respective media to obtain the designated levels and used. SK-HEP-1 cells (ATCC) were diluted with SK-HEP-1 cell culture medium so that they were 2.0×10^6 cells/mL or less, seeded under 6.07×10^5 cells/cm^2 on culture plates that had been coated with retronectin (Takara Bio Co., Ltd.) and a retrovirus into which a CAR gene had been introduced, and cultured for 4 days to introduce the CAR gene into SK-HEP-1 cells. CAR-T cells were produced as described above. SK-Hep-1 cell expressing CAR were produced as discussed above. 0.1% DMSO was added in the transduction_step during its production. After production, the rate of introduction of the CAR-gene was measured by flow cytometry.

NK92 cells = assay: Introduction of mCherry gene into NK92 cells, flow cytometry
Description: NK92 cell culture medium: RPMI, L-Gln (+) (Thermo Fisher Scientific) was prepared by adding 20% FBS (Biosera Co., Ltd.). Dimethyl Sulfoxide (DMSO) (Wako Pure Chemical Industries, Ltd) was added to the respective media to obtain the designated levels and used. NK92 cells (ATCC) were diluted with NK92 cell culture medium so that they were 2.0×10^6 cells/mL or less, seeded under 6.07×10^5 cells/cm^2 on culture plates with or without DMSO for 2 days. After that, NK92 cells were cultured on retronectin (Takara Bio Co., Ltd.) and a retrovirus into which a mCherry gene had been introduced, and cultured for 2 days to introduce the mCherry gene into NK92 cells. mCherry positive NK92 cells were produced as described above. DMSO from 0.01% to 0.1% was added in the pre-cultre step before transduction during its production. After production, the rate of introduction of the mCherry-gene was measured by flow cytometry.

T cells [1] = assay: Immune phenotype of T cells by flow cytometry (naive and stem cell memory T cells, CAR-T production)
Description: (§1) CAR-T cell culture medium: 2.6% OpTmizer Expansion Basal Supplement (Thermo Fisher Scientific), 1% L-Glutamine (Thermo Fisher Scientific), and 1% Streptomycine, 2% CTS Immune Cell SR (Thermo Fisher Scientific) were added to OpTmizer CTS T-Cell Expansion basal medium (Thermo Fisher Scientific) to prepare a basal cell culture medium. To this was added 20 IU/mL or 40 IU/mL of MACS GMP IL-2 (Miltenyi Biotec). Dimethyl Sulfoxide (DMSO) (Wako Pure Chemical Industries, Ltd) was added to the respective media to obtain the designated levels and used. After Leukopak (Hemacare) was thawed, the cells were diluted in CAR-T cell culture medium to less than or equal to 2.0×10^6 cells/mL (pre-production raw material). Cell suspension: MACS GMP T-Cell TransACT (Miltenyi Biotec)=17.5:1 were seeded in culture bags and cultured in about 48 hours (cell activation step). The activated cells were diluted in culture medium using a LOVO Cell processing system (Fresenius Kabi) or a centrifuge, seeded under 6.07×10^5 cells/cm^2 in culture bags that had been previously coated with Retronectin® (Takara Bio Co., Ltd.) and a retrovirus into which a CAR gene or a CAR gene, a IL-7 gene, and a CCL19 gene had been introduced, and cultured until the next day (gene transfer process). Culture bottles (G-REX, Wilson Wolf) were seeded under 2.2×10^6 cells/cm^2 and cultured for 3-7 days to produce CAR-T cells (final products). The CAR gene used has the base sequence encoding the amino acid sequence shown in SEQ ID NO: 1, IL-7 gene used has the base sequence encoding the amino acid sequence shown in SEQ ID NO: 2, and CCL19 gene used has the base sequence encoding the amino acid sequence shown in SEQ ID NO: 3 (the same applies to the following SK-HEP-1 cells). See Table 1 for the afore mentieond sequences. CAR introduction rates into T cells were determined using CAR-targeting antigens on a BD FACSCanto II flow cytometer (BD Biosciences). The immunophenotype of T cells was measured using an anti-CD4 antibody (clone SK3, cat #344604, BioLegend), an anti-CD8 antibody (clone SK1, cat #344710, BioLegend), an anti-CCR7 antibody (clone G043H7, cat #353204, BioLegend), an anti-CD45RA antibody (clone L48, cat #337167, BD Biosciences), an anti-CD27 antibody (clone 0323, cat #302836, BioLegend), and an anti-CD95 antibody (clone DX2, cat #305612, BioLegend), and CCR7/CD45RA/CD27/CD95 positive cells in a CD4 positive or CD8 positive T cell population were used as stem cell memory T cells, and CCR7/CD45RA positive cells other than these were used as naive T cells.

T cells [2] = assay: Rate of introduction of the CAR gene into T cells by flow cytometry (CAR-T production); conditions: for CAR-positive rate: 0.0037%, 0.011%
Description: as §1

[3] = Example 1, armored, activation step, 0.0037%, 0.011%, 0.033%, 0.1% DMSO vs no DMSO
[4] = Example 1, armored, activation step, 0.011%, 0.033%, 0.1% DMSO vs no DMSO
[5] = Example 3, armored, transduction step, 0.011%, 0.033%, 0.1%, 0.3% DMSO vs no DMSO
[6] = Example 6, unarmored, ex vivo expansion step, 0.3% DMSO vs no DMSO
[7] = Example 7, unarmored, ex vivo expansion step, 0.6-2.7% DMSO vs no DMSO

With `C[S+](C)[O-]` [DMSO, dimethyl sulfoxide] the “CAR gene transduction in SK-Hep-1” value (SK-HEP-1 cells) was “suppresses”, the mCherry transduction efficiency (NK92 cells; Example 9, NK92 cells, 0.03% and 0.1% DMSO in pre-culture step 2 days before transduction, FIG. 9B) was “significantly improves” and the “transduction efficiency in NK92 cells (mCherry positive cells)” value (NK92 cells; FIG. 9B legend, 0.01%-0.1% DMSO added in preculture step before transduction) was “improved”. For the same compound, the “CD8 positive naive T cells” value (T cells [1]; [3]) was “significantly increased”, the “CD8 positive stem cell memory T cells” value (T cells [1]; [3]) was “significantly increased” and the “CD4 positive naive T cells” value (T cells [1]; [4]) was “significantly increased”. For the same compound, the “CD4 positive stem cell memory T cells” value (T cells [1]; [4]) was “significantly increased”, the “CD4 positive stem cell memory T cells” value (T cells [1]; Example 2, unarmored, activation step, 0.0037%, 0.011%, 0.033%, 0.1%, 0.3% DMSO vs no DMSO) was “significantly increased” and the “CD8 positive stem cell memory T cells” value (T cells [1]; Example 2, unarmored, activation step, 0.1% and 0.3% DMSO vs no DMSO) was “significantly increased”. The “CD8 positive stem cell memory T cells” value (T cells [1]; Example 3, armored, transduction step, 0.0037%, 0.011%, 0.033%, 0.1% DMSO vs no DMSO) was “increased”, the “CD8 positive naive T cells” value (T cells [1]; Example 3, armored, transduction step, 0.011% and 0.033% DMSO vs no DMSO) was “increased” and the “CD4 positive naive T cells” value (T cells [1]; [5]) was “significantly increased”. The “CD4 positive stem cell memory T cells” value (T cells [1]; [5]) was “significantly increased”, the “CD8 positive stem cell memory T cells” value (T cells [1]; Example 4, unarmored, transduction step, 0.0037%, 0.011%, 0.033%, 0.01% and 0.3% DMSO vs no DMSO) was “increased” and the “CD4 positive naive T cells” value (T cells [1]; Example 4, unarmored, transduction step, 0.011% and 0.033% DMSO vs no DMSO) was “increased”. The “CD8 positive stem cell memory T cells” value (T cells [1]; Example 5, armored, ex vivo expansion step, 0.3% DMSO vs no DMSO) was “significantly increased”, the “CD4 positive naive T cells” value (T cells [1]; [6]) was “increased” and the “CD4 positive stem cell memory T cells” value (T cells [1]; [6]) was “increased”. The “CD4 positive naive T cells” value (T cells [1]; [7]) was “increased”, the “CD4 positive stem cell memory T cells” value (T cells [1]; [7]) was “increased” and the “CD8 positive naive T cells” value (T cells [1]; [7]) was “increased”. For the same compound, the “CD8 positive stem cell memory T cells” value (T cells [1]; [7]) was “increased”, the CAR-positive rate (T cells [2]; Example 1, CAR-T expressing IL-7 and CCL19 (armored), 0.033%, 0.1% DMSO in activation step (heading, FIG. 1; text says transduction step), vs no DMSO group) was “significantly increased” and the CAR-positive rate (T cells [2]; Example 2, CAR-T (unarmored), 0.033%, 0.1%, 0.3% DMSO in activation step (heading, FIG. 2; text says transduction step), vs no DMSO group) was “significantly increased”. The CAR-positive rate (T cells [2]; Example 3, armored (IL-7, CCL19), gene transduction step, 0.033%, 0.1% DMSO vs no DMSO group) was “significantly increased”, the CAR-positive rate (T cells [2]; Example 4, unarmored, gene transduction step, 0.033% DMSO vs no DMSO group) was “increased” and the “CAR transduction efficiency (CAR-T)” value (T cells [2]; Example 8, 0.1% DMSO in transduction step, FIG. 8B) was “significantly improves”.
